Data on one compound can be found in patent publication US12691092B2, “Method for reducing cutaneous skin scarring by pre-emptive priming and compounds and compositions for its implementation” (SOS SCIENCE OF SKIN LTD, priority 2020, dated 2026).

This assay deals with human skin scarring model. Kind of assay: Viscoelasticity of scars by clinical elastin probe. The class given is in vivo. The method, then:
A double-blind randomized placebo-controlled trial was conducted using a temporal punch-biopsy model. The punch biopsy and topical application methodology used in the study is illustrated in FIG. 1, namely showing pre-injury pre-emptive priming (7-days), pre-injury pre-emptive priming (3-days), day of injury (immediate application on day 0), post-injury (delayed 2 weeks post injury) including biopsy time points and time of topical applications. Each group applied both placebo and topical formulations twice daily for the duration of the study until week 8, with only the starting time point differing between groups Participants were split into 4 groups (n=10 in each group) in order to compare different modes (timings) of commencement of the topical application: • Group-1: Pre-emptive Priming (7-days): pre-injury • Group-2: Pre-emptive Priming (3-days): pre-injury • Group-3: Immediate (0-day): day-of-injury • Group-4: Delayed (14-days): post-injury Clinical quantitative devices were used to objectively monitor cutaneous healing at weekly intervals and punch biopsies were performed on day 0 (uninjured skin) and at weeks 4 and 8 for protein and gene expression analyses. In the trial, topical EGCG and a placebo topical were applied twice daily for the duration of the trial until week 8 with only the starting time points differing between groups. […]

Regarding `O=C(OC1Cc2c(O)cc(O)cc2OC1c1cc(O)c(O)c(O)c1)c1cc(O)c(O)c(O)c1` (single isomer, unassigned; (-)) [EGCG, (-)-epigallocatechin-3-gallate], for the setting “group-1 weeks 1, 7, 8, group-2 week 8, group-3 week 8, group-4 week 7”, the “Elasticity (viscoelasticity), EGCG-treated arms compared to placebo-treated arms” value is listed as “significantly increased”. Moreover, the “Elasticity, between group comparison, group-1 vs group-4” value (week 8, p=0.029) is recorded as “significantly increased elastin more than group-4”.
